Data from patent publication US8658668B2, “PI3 kinase/mTOR dual inhibitor” (Eli Lilly and Company, priority 2011, dated 2014).

Tests used:
pS240/244 S6RP = assay: In vivo target inhibition in U87MG tumors, pS240/244 S6RP; details: Mus musculus, U-87 MG; for inhibition at 0.5 mg/kg: 0.5 mg/kg oral; for inhibition at 1.5 mg/kg: 1.5 mg/kg oral; for inhibition at 3 mg/kg: 3 mg/kg oral; for inhibition at 6 mg/kg: 6 mg/kg oral; for inhibition at 10 mg/kg: 10 mg/kg oral; for inhibition at 12 mg/kg: 12 mg/kg oral
Protocol: (§1) Implant U87MG human glioblastoma cells (5×10^6) subcutaneously into the flank of athymic nude mice in 0.2 mL of matrigel. Ten days post-implantation, dose mice orally according to a time course, single dose/single time point, or dose response protocol for the determination of TMED50 (threshold minimum effective dose). Flash freeze tumors at harvest and collect blood for the determination of parent compound plasma exposure and the calculation of TMEC50 (threshold minimum effective concentration) in the case of dose response studies. Homogenize tumors in 500 μL of XY Lysis Buffer (10 μg/mL Leupeptin, 10 μg/mL Trypsin-Chymotrypsin Inhibitor, 10 μg/mL Tosyl phenyl-alanyl chloromethyl ketone, 10 μg/mL Aprotinin, 60 mM Beta-Glycerol Phosphate, 1% Triton X100, 25 mM Tris pH 7.5, 2.5 mM Pyrophosphate, 150 mM NaCl, 2 mM p-tosyl-L-arginine methyl ester, 15 mM para-nitrophenyl phosphate, 5 mM benzamidine, 1 mM sodium vanadate, 10 mM sodium fluoride, 50 μg/mL phenyl-methane sulfonyl fluoride, 1 mM 1,4-dithiothreitol (DTT), 15 mM EDTA pH 8.0, 5 mM EGTA pH 8.0, 1 μM Microcystin, 1 μM Okadaic Acid, and 1 Roche Complete protease inhibitor mini-tablet per 10 mL) using RNase Free Pellet Pestle (Kimble-Kontes). Aliquot lysates and either assay immediately or store at −80° C. for later testing. Use the multiplex format of Meso Scale Discovery (Gaithersburg, Md.) ELISA technology and measure in vivo target inhibition of PI3K and mTOR to assess effects on phosphorylation of the threonine 308 site of AKT, a downstream effector of PI3K; phosphorylation on the threonine 389 site of p70 S6K and on the serine 240/244 site of S6RP, downstream effectors of mTORC1; phosphorylation of the serine 473 site of AKT, a downstream effector of mTORC2. Add 20 μg of lysate to carbon electrode containing 96-well plates pre-spotted with the appropriate capture antibodies. Probe the protein of interest using a ruthenium labeled detection antibody. Pass current over the electrode in the presence of read buffer containing the co-reactant TPA, and quantitate and record the light generated by electro-chemiluminescence with the MSD Sector 6000 instrument. Calculate percent inhibitions relative to the vehicle control group and perform ANOVA analysis using the JMP software package for the determination of statistical significance.

A204 = assay: Cell proliferation assay (CellTiter-Glo), A204; type: cell-based; details: Homo sapiens, A204, 72 h
Protocol: Plate cells in a 96-well plate at 2000 cells/well in 100 μL of cell specific medium (for U87MG use DMEM, 10% FBS, 25 mM 4-(2-hydroxyethyl)-1-piperazineethanesulfonic acid (HEPES), 1.0 mM sodium pyruvate, and 0.1 mM Non Essential Amino Acids (ATCC Cat.#30-2002); for HT1080 use Eagle's MEM, 10% FBS (ATCC Cat.#30-2003); for H1975, A2780, SJSA-1 and 786-O use RPMI 1640, 10% FBS (ATCC Cat.#30-2001); for A204 use McCoy's 5A, 10% FBS (ATCC Cat.#30-2007) except in column 1 use medium only as the blank control. Incubate the plates overnight at 37° C. and 5% CO2. On the next day, prepare compound stocks at 1 mM in DMSO and serially dilute in DMSO in a 96-well round bottom polypropylene plate. Assay compounds at 10 concentrations in duplicate, 4 compounds per plate.
Transfer 4 μL of the DMSO serial dilutions to a 96 well plate and add 196 μL of culture medium to create a 10× stock for dosing. Gently transfer 11 μL of each dosing stock to the corresponding well of the cell plate resulting in a 0.2% DMSO concentration and a 111 μL final volume. […]
Prepared the CellTiter-Glo reagent (Promega, Cat: G7571) and add 100 µL to each well after the incubation is complete, homogenize the cells by mixing on an orbital shaker for 2 min and then incubate at RT for 10 min to allow the luminescent signal to stabilize. Record the luminescent raw data with a Wallac Victor V plate reader. […]

[1] = test system: SXF 1301 human tumor xenograft cells; assay: Oncotest tumor clonogenic assay, SXF 1301; type: cell-based; details: colony formation, Sarcoma SXF 1301, malignant rhabdomyosarcoma, ud, read-out: Absolute IC50
[2] = test system: LXFL 1072 human tumor xenograft cells; assay: Oncotest tumor clonogenic assay, LXFL 1072; type: cell-based; details: colony formation, NSCLC LXFL 1072, large cell lung carcinoma, pd, read-out: Absolute IC50
[3] = test system: MEXF 276 human tumor xenograft cells; assay: Oncotest tumor clonogenic assay, MEXF 276; type: cell-based; details: colony formation, Melanoma MEXF 276, amelanotic melanoma, md, read-out: Absolute IC50
[4] = test system: CXF 1729 human tumor xenograft cells; assay: Oncotest tumor clonogenic assay, CXF 1729; type: cell-based; details: colony formation, Colon CXF 1729, adeno carcinoma, wd, read-out: Absolute IC50
pS473 AKT = assay: In vivo target inhibition in U87MG tumors, pS473 AKT; details: Mus musculus, U-87 MG; for inhibition at 0.5 mg/kg: 0.5 mg/kg oral; for inhibition at 1.5 mg/kg: 1.5 mg/kg oral; for inhibition at 3 mg/kg: 3 mg/kg oral; for inhibition at 6 mg/kg: 6 mg/kg oral; for inhibition at 10 mg/kg: 10 mg/kg oral; for inhibition at 12 mg/kg: 12 mg/kg oral
Protocol: as §1

## CO[C@@H](C)Cn1c(=O)n(C)c2cnc3ccc(-c4cncc(C(C)(C)O)c4)cc3c21 [Example 1, 8-[5-(1-Hydroxy-1-methylethyl)pyridin-3-yl]-1-[(2S)-2-methoxypropyl]-3-methyl-1,3-dihydro-2H-imidazo[4,5-c]quinolin-2-one]
pS240/244 S6RP; 0.5 hr post dose
  inhibition at 0.5 mg/kg: 9%
  inhibition at 1.5 mg/kg: 4%
  inhibition at 3 mg/kg: 9%
  inhibition at 6 mg/kg: 26%
  inhibition at 10 mg/kg: -4%
  inhibition at 12 mg/kg: 55%
pS240/244 S6RP; 4 hr post dose
  inhibition at 0.5 mg/kg: 5%
  inhibition at 1.5 mg/kg: 12%
  inhibition at 3 mg/kg: 37%
  inhibition at 6 mg/kg: 58%
  inhibition at 10 mg/kg: 95%
  inhibition at 12 mg/kg: 97%
pS240/244 S6RP; 0.25 hr post dose
  inhibition at 3 mg/kg: -11%
  inhibition at 6 mg/kg: 7%
pS240/244 S6RP; 1 hr post dose
  inhibition at 3 mg/kg: 51%
  inhibition at 6 mg/kg: 66%
  inhibition at 10 mg/kg: 69%
pS240/244 S6RP; 3 hr post dose
  inhibition at 3 mg/kg: 64%
pS240/244 S6RP; 2 hr post dose
  inhibition at 6 mg/kg: 83%
  inhibition at 10 mg/kg: 89%
pS240/244 S6RP; 6 hr post dose
  inhibition at 6 mg/kg: 55%
pS240/244 S6RP; 12 hr post dose
  inhibition at 6 mg/kg: -35%
pS240/244 S6RP; 8 hr post dose
  inhibition at 10 mg/kg: 16%
A204
  IC50: 97 nM
[1]
  IC50: > 200 nM
[2]
  IC50: 214 nM
[3]
  IC50: 157 nM
[4]
  IC50: 176 nM
pS473 AKT; 0.5 hr post dose
  inhibition at 0.5 mg/kg: -9%
  inhibition at 1.5 mg/kg: 34%
  inhibition at 3 mg/kg: 63%
  inhibition at 6 mg/kg: 77%
  inhibition at 10 mg/kg: 90%
  inhibition at 12 mg/kg: 91%
pS473 AKT; 4 hr post dose
  inhibition at 0.5 mg/kg: -28%
  inhibition at 1.5 mg/kg: -12%
  inhibition at 3 mg/kg: -3%
  inhibition at 6 mg/kg: -5%
  inhibition at 10 mg/kg: 56%
  inhibition at 12 mg/kg: 44%
pS473 AKT; 0.25 hr post dose
  inhibition at 3 mg/kg: 23%
  inhibition at 6 mg/kg: 63%
pS473 AKT; 1 hr post dose
  inhibition at 3 mg/kg: 12%
  inhibition at 6 mg/kg: 67%
  inhibition at 10 mg/kg: 73%
pS473 AKT; 3 hr post dose
  inhibition at 3 mg/kg: -7%
pS473 AKT; 2 hr post dose
  inhibition at 6 mg/kg: 51%
  inhibition at 10 mg/kg: 66%
pS473 AKT; 6 hr post dose
  inhibition at 6 mg/kg: -8%
pS473 AKT; 12 hr post dose
  inhibition at 6 mg/kg: -6%
pS473 AKT; 8 hr post dose
  inhibition at 10 mg/kg: 13%
